Reference: patent publication US10398672B2, “Methods and compositions for targeting cancer stem cells” (Whitehead Institute for Biomedical Research, priority 2014, dated 2019)

Tested on: NAMEC cells transformed with Ras
Settings: mouse, in vivo

Substance: cholera toxin
- loss of tumor-initiating ability compared to untreated NAMEC cells: 100 fold
